Results as given in ChEMBL document CHEMBL4376867 (J Med Chem, 2020).
In brackets after ≈: the same amount, converted by molar mass.

Legend:
IKK epsilon/TBK1 = biological target: T1, IKK epsilon/TBK1 (Homo sapiens, UniProt Q14164+Q9UHD2); assay: Inhibition of IKKepsilon/TBK1 in human MDB-MB-231 cells transduced with lentiviral vector expressing human IRF3 assessed as decrease in poly(I:C)-stimulated IRF3 phosphorylation at S385/386 residues preincubated for 1 hr followed by poly(I:C) addition and measured after 1 hr; format: cell-based
T1 sequence (Q14164 whole entry): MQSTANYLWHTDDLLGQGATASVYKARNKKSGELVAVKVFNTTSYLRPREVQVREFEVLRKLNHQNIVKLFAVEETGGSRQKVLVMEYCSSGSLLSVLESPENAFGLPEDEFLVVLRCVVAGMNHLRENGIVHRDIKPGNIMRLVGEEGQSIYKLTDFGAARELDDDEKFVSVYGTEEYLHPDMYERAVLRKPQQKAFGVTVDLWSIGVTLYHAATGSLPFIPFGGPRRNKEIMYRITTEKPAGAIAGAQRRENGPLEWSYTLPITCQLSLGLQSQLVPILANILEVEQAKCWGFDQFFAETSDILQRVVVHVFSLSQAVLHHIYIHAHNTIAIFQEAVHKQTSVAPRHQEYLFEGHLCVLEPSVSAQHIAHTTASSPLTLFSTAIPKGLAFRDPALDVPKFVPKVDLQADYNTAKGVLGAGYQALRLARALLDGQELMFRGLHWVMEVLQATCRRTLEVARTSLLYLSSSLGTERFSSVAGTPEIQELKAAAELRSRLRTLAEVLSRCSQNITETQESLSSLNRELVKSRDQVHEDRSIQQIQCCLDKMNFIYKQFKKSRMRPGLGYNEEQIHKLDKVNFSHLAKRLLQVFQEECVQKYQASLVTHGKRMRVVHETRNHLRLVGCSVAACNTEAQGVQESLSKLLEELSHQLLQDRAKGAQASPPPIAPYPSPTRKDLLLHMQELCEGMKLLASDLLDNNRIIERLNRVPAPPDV
T1 sequence (Q9UHD2 whole entry): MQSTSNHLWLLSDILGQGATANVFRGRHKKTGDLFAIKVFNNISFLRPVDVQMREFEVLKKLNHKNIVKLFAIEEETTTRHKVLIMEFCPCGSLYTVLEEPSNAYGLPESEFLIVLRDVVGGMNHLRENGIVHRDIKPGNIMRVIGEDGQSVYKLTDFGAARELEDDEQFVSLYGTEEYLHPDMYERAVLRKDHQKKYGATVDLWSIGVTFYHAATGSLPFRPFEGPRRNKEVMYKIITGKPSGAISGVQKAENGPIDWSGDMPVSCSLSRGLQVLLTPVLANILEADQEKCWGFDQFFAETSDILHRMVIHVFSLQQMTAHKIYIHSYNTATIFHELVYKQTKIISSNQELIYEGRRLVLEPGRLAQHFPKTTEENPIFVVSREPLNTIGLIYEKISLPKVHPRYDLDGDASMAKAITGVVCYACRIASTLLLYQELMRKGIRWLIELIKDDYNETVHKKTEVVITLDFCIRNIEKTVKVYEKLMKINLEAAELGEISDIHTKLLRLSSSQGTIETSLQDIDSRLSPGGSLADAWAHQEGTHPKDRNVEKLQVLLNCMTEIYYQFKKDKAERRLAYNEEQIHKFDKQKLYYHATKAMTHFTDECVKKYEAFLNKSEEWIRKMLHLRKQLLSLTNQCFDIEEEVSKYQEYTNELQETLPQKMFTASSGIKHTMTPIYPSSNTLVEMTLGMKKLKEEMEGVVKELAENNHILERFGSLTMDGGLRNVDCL

[1] = biological target: T2, Inhibitor of nuclear factor kappa-B kinase subunit epsilon (Homo sapiens, UniProt Q14164); assay: (§1) Inhibition of recombinant full length human C-terminal GST-tagged IKKepsilon expressed in baculovirus expression system using biotin-labelled Ahx-GDEDFSSFAEPG peptide as substrate preincubated with enzyme for 15 mins followed by substrate addition and further incubated for 30 mins in presence of 10 uM of ATP by TR-FRET assay
T2 sequence (Q14164 whole entry): T1 sequence (Q14164 whole entry)

[2] = Efflux ratio of apparent permeability across basolateral to apical membrane over apical to basolateral membrane in human Caco2 cells; format: ADME, cell-based; conditions: Caco-2
[3] = Apparent permeability of compound across apical to basal membrane in human Caco2 cells at 2 uM in DMSO after 2 hrs by LC-MS/MS analysis; format: ADME, cell-based; conditions: Caco-2
[4] = Apparent permeability of compound across basal to apical membrane in human Caco2 cells at 2 uM in DMSO after 2 hrs by LC-MS/MS analysis; format: ADME, cell-based; conditions: Caco-2
SK-MEL-2 = assay: Antiproliferative activity against human SK-MEL-2 cells harboring NRAS/TP53 mutation assessed as reduction in cell viability after 96 hrs by CellTiter-Glo luminescence assay; format: functional, cell-based; conditions: SK-MEL-2, 96 h
[5] = biological target: Ribosomal protein S6 kinase alpha-6 (Homo sapiens, UniProt Q9UK32); assay: Inhibition of recombinant full length human His6-tagged RSK4 expressed in baculovirus infected sf21 cells using biotin labelled Ahx-KKLNRTLSFAEPG peptide as substrate preincubated with enzyme for 15 mins followed by substrate addition and further incubated for 30 mins in presence of 10 uM of ATP by TR-FRET assay
CDK9/cyclin T1 = CDK9/cyclin T1 (Homo sapiens, UniProt P50750); assay: as §1, with “His-tagged CDK9/CyclinT1” for “C-terminal GST-tagged IKKepsilon”, “Ttds-YISPLKSPYKISEG” for “Ahx-GDEDFSSFAEPG”, “25” for “30”, “mins” for “mins in”
[6] = biological target: T3, Serine/threonine-protein kinase 17A (Homo sapiens, UniProt Q9UEE5); assay: Inhibition of wild-type human partial length DRAK1 (R32 to E363 residues) expressed in bacterial expression system by Kinomescan method
T3 sequence (Q9UEE5 whole entry): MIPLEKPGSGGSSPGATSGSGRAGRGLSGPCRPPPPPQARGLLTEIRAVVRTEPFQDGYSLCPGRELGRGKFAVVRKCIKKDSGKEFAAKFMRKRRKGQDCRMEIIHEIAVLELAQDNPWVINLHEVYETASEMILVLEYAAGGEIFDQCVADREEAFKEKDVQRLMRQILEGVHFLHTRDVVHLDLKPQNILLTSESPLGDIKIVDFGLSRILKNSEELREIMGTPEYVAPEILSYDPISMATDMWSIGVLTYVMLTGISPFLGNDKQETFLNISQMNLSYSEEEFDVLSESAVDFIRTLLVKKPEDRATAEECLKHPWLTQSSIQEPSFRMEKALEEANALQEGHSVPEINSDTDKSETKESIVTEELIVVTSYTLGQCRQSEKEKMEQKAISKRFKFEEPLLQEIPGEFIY

[7] = biological target: T4, Serine/threonine-protein kinase TBK1 (Homo sapiens, UniProt Q9UHD2); assay: Inhibition of recombinant full length human N-terminal His-tagged TBK1 using biotin-labelled Ahx-GDEDFSSFAEPG peptide as substrate preincubated with enzyme for 15 mins followed by substrate addition and further incubated for 30 mins in presence of 1 mM of ATP by TR-FRET assay
T4 sequence (Q9UHD2 whole entry): T1 sequence (Q9UHD2 whole entry)

[8] = Hepatic extraction ratio in human liver microsomes at 1 uM measured upto 60 mins in presence of NADP by LC-MS/MS analysis
[9] = Solubility of compound in water at pH 6.5; format: physicochemical
Cytochrome P450 3A4 = Cytochrome P450 3A4 (Homo sapiens, UniProt P08684); assay: Inhibition of CYP3A4 (unknown origin) measured under preincubated conditions; format: ADME
[10] = Clearance in Wistar rat at 0.30 mg/kg, iv via bolus measured upto 24 hrs by LC-MS/MS analysis; format: ADME, organism-based; conditions: in vivo, 0.3 mg/kg

CDK9/cyclin T1, sequence (O60563 whole entry, the tested form may be a part): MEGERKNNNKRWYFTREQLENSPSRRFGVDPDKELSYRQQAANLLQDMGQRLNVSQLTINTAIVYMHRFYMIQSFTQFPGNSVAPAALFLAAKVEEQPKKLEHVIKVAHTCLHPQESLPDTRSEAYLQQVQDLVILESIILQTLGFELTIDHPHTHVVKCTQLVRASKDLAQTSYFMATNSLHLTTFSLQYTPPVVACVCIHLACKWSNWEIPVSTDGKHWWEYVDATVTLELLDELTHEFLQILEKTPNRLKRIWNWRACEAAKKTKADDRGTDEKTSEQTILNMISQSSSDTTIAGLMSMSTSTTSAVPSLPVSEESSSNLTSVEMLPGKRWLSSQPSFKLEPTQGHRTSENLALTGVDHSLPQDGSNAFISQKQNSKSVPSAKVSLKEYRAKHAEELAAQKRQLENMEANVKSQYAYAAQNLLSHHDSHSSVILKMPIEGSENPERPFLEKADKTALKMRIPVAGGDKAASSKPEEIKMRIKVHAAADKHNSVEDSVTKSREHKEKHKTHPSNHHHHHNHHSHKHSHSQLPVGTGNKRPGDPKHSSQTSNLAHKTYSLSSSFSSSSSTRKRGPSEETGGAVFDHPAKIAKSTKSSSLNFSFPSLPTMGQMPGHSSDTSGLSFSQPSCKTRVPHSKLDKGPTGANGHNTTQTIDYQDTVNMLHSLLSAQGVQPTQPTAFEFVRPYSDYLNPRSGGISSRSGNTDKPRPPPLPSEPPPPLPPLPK
CDK9/cyclin T1, sequence (P50750 whole entry, the tested form may be a part): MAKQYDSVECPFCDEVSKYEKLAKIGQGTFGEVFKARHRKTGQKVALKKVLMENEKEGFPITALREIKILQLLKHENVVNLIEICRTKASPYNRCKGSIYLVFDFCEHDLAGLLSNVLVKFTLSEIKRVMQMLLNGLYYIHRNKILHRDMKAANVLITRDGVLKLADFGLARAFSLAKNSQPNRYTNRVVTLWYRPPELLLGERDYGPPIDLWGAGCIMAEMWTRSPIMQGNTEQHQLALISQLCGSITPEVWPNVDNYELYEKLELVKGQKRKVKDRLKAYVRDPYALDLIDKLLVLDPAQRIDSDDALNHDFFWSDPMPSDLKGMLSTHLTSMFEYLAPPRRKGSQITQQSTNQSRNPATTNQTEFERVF
Ribosomal protein S6 kinase alpha-6, sequence (Q9UK32 whole entry): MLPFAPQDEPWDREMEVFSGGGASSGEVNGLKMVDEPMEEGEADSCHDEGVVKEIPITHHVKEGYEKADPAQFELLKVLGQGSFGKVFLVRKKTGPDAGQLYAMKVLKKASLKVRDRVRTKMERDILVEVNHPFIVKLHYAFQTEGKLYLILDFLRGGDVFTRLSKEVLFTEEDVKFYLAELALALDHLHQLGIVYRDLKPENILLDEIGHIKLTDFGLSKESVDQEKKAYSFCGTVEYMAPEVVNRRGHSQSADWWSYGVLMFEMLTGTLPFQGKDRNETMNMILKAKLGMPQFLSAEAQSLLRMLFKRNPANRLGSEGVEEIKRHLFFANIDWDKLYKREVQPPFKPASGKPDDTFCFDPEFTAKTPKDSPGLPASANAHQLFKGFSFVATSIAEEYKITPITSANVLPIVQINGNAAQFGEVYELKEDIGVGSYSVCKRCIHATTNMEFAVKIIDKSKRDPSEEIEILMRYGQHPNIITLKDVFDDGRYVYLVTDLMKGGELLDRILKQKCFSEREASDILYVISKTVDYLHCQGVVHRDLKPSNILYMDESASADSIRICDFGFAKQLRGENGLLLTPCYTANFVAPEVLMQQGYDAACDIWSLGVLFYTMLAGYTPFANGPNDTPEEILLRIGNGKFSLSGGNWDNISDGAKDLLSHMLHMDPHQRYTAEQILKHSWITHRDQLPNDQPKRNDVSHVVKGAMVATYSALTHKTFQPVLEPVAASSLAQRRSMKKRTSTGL
Cytochrome P450 3A4, sequence (P08684 whole entry): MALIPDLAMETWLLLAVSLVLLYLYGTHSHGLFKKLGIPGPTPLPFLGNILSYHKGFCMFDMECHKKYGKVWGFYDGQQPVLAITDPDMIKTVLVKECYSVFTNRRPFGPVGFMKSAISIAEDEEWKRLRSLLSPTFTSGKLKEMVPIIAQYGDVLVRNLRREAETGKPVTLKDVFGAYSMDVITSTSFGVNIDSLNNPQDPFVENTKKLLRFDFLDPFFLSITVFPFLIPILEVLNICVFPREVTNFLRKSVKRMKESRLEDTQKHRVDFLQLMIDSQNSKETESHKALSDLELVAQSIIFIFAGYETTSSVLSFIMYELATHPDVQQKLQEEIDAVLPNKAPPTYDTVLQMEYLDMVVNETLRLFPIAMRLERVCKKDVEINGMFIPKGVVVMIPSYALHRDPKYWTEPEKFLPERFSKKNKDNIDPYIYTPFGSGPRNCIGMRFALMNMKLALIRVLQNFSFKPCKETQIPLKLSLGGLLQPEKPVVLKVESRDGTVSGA

SMILES	IC50 (IKK epsilon/TBK1) [nM]	IC50 [1] [nM]	efflux ratio [2]	Papp A→B at 2 h, 2 µM [3] [×10⁻⁶ cm/s]	Papp B→A at 2 h, 2 µM [4] [×10⁻⁶ cm/s]	IC50 (SK-MEL-2) [nM]	IC50 [5] [nM]	IC50 (CDK9/cyclin T1) [nM]	Kd [6] [nM]	IC50 [7] [nM]	IC50 [6] [nM]	hepatic extraction ratio at 1 h, 1 µM [8]	solubility [9] [µg/mL]	IC50 (Cytochrome P450 3A4) [nM]	clearance [10] [mL/min/kg]
C[C@H](c1ccnc(Nc2nc3ccc(-c4cnn(CC5CC5)c4)cc3[nH]2)c1)N1CCN(C(=O)CC(F)(F)F)CC1	131	6	7.5	1.6	11.8	408	3220	> 20000	5	18					
CN(C)c1cc(-c2ccc3nc(Nc4cc(CN5CCN(C(=O)CC(F)(F)F)CC5)ccn4)[nH]c3c2)ncn1	213	10				246	528	14400		167	252				
C[C@H](c1ccnc(Nc2nc3ccc(-c4cc(OCC5CC5)ncn4)cc3[nH]2)c1)N1CCN(C(=O)CC(F)(F)F)CC1	66	4				470	1260	16100		5					
O=C(CC(F)(F)F)N1CCN(Cc2ccnc(Nc3nc4ccc(-c5cnn(CC6CC6)c5)cc4[nH]3)c2)CC1	368	7	3.9	3.2	12.5	221	4120	9190		137					
Cc1cc(-c2ccc3nc(Nc4cc([C@@H](C)N5CCN(C(=O)CC(F)(F)F)CC5)ccn4)[nH]c3c2)ncn1	140	4				476	170	2130		17					
CC(C)Oc1cncnc1-c1ccc2nc(Nc3cc([C@@H](C)N4CCN(C(=O)CC(F)(F)F)CC4)ccn3)[nH]c2c1	119					3970	7	824		50					
Cc1noc(-c2ccc3nc(Nc4cc(CN5CCN(C(=O)CC(F)(F)F)CC5)ccn4)[nH]c3c2)n1	2750	168	3.4	4.2	14.2	2180	8910	455	9	2270					
Cc1noc(-c2ccc3nc(Nc4cc([C@@H](C)N5CCN(C(=O)CC(F)(F)F)CC5)ccn4)[nH]c3c2)n1	1210	37	0.8	10.8	8.6	3530	2360	1520	10	372					
COCc1cc(-c2ccc3nc(Nc4cc([C@@H](C)N5CCN(C(=O)CC(F)(F)F)CC5)ccn4)[nH]c3c2)ncn1		2		1.4	21.8	883	192	5110			30				
CNc1cc(-c2ccc3nc(Nc4cc(CN5CCN(C(=O)CC(F)(F)F)CC5)ccn4)[nH]c3c2)ncn1	1990	10				245	177			155	25				
C[C@H](c1ccnc(Nc2nc3ccc(-c4cc(N(C)C)ncn4)cc3[nH]2)c1)N1CCN(C(=O)CC(F)(F)F)CC1 [BAY-985]	74	2	17	0.89 to 0.9	14.6 to 14.7	900	276			30	311	0.38	0.8 (≈ 1.45 µM)	> 20000	66.7
